From patent publication US8703438B2, “Ligand binding stabilization method for drug target identification” (The Regents of the University of California, priority 2008, dated 2014) come the findings set out here.

Holding throughout (assay type): binding
The target of one experiment is T1, EF-1 alpha (Homo sapiens, UniProt P68104).
T1 construct: endogenous in cells; host or cells: Jurkat cells
Description: DARTS with DB, detection of EF-1 alpha by immunoblotting. The procedure: FIG. 7 illustrates DARTS with Didemnin B using whole-cell lysates. Lysates from untreated human Jurkat cells were incubated with DMSO control or DB (1 ng/mL, 10 ng/mL, 100 ng/mL, 300 ng/mL, and 1 μg/mL) for 30 min at room temperature. Each sample was then split into two, which underwent thermolysin proteolysis, or mock digestion, respectively, followed by western blot analysis. Protection can be seen starting at 100 ng/mL.
Examination of the protected band and the matching gel region of the control lane by mass spectrometry confirmed that EF-1 alpha was the primary protein present at higher abundance in the DB-treated sample (FIG. 3B). […] The generality of this approach is further supported by experiments using diverse protein-drug pairs ranging from nano- to micro-molar: mTOR-rapamycin, COX-2celecoxib, and SCF E3 ubiquitin ligase-inhibitor (FIG. 8). Furthermore, DARTS is not enzyme specific, and much higher overall digestion efficiency can be achieved using other proteases while retaining protection of the target protein (see Example 2 and FIG. 9).
For FIGS. 3A and 3C, intact Jurkat cells were treated with DB from 100 pg/mL to 1 μg/mL or DMSO control for 30 min. […]
For FIG. 7, human Jurkat cells were lysed in M-PER (Pierce) supplemented with protease and phosphatase inhibitors. Protein concentration was determined by BCA Protein Assay kit (Pierce). […]
(A western blot detects proteins with antibodies after separation by electrophoresis.)

For experiment [1], the target named is T2, proteins of human Jurkat cell lysate (EF-1alpha isoforms and others) (Homo sapiens, UniProt P06733).
T2 construct: endogenous in cells; host or cells: Jurkat cells
Description: DARTS with DB-treated intact Jurkat cells, thermolysin, Coomassie staining and mass spectrometry of protected band. The conditions noted are these: DB vs DMSO, mass spectrometry. The text has this: (§1) The experiments above established that DARTS can efficiently test, screen, or verify drug-protein interactions when the protein is available in relatively pure form. For DARTS to be generally useful as a discovery tool, however, applicability to complex protein mixtures (such as cell lysates) would be desirable. […] Given that EF-1 alpha is a highly abundant protein, we first tested whether in the DARTS protocol DB would protect EF-1 alpha from proteolysis and result in a detectable difference.
(§2) For FIGS. 3A and 3C, intact Jurkat cells were treated with DB from 100 pg/mL to 1 μg/mL or DMSO control for 30 min. Cells were lysed (without washing, in these experiments) with M-PER (Pierce) supplemented with protease and phosphatase inhibitors. After centrifugation (14,000 rpm, 15 min), lysates were diluted to the same final volume and protein concentration with M-PER and proteolysed in reaction buffer [50 mM Tris-HCl pH 8.0, 50 mM NaCl, 10 mM CaCl2]. All steps were performed on ice or at 4° C. to help prevent premature protein degradation. Each sample was then quickly warmed to room temperature and proteolysed with 1 μg thermolysin for every 15 μg lysate for 10 min. To stop proteolysis, 0.5 M EDTA (pH 8.0) was added to each sample at a 1:10 ratio, mixed well, and placed on ice.
(§3) Gel bands were cut out and prepared for mass spec analysis with trypsin digestion as described in SI. Peptides were analyzed by LC/MS/MS on a Thermo LTQ-Orbitrap mass spectrometer with an Eksigent LC pump. For quantitative comparison of protein and peptide abundances, MS spectra were analyzed using the differential workflow of Rosetta Elucidator (Rosetta Inpharmatics) (54). Annotation was performed using PeptideTeller and ProteinTeller (see SI).
(§4) The result could indicate lower affinity binding of DB to PGK1, or secondary effects on protein abundance because in this experiment the cells were treated with drug in vivo.
(§5) Proteins were initially identified by searching the spectra against the human International Protein Index database (version 3.46) and the S. cerevisiae Swissprot database (May 2008) using the SEQUEST algorithm (Eng et al. (1994) J Am Soc Mass Spectrom 5: 976-989) integrated into the Bioworks software package. Each peptide met the following criteria: XCorr ≧2 (+1), ≧3 (+2), ≧4 (+3), ≧5 (+4), and DeltaCN>0.1. For quantitative comparison of protein and peptide abundances, MS spectra were analyzed using the differential workflow of the Rosetta Elucidator software system (Rosetta Inpharmatics) (Neubert et al. (2008) J Proteome Res 7: 2270-2279). Annotation was performed using PeptideTeller and ProteinTeller with a minimum probability of 0.99 and predicted error of 0.0. Protein ratio data were generated with a P-value cutoff of 0.01 for all proteins with a peptide number >1. Intensity scaling was performed against the mean of feature signals, with 10% of outliers removed from the baseline dataset. Similar results were obtained in analysis without intensity scaling (FIG. 9A).

The target of experiment [2] is T3, proteins of human Jurkat cell lysate (EF-1alpha isoforms and others) (Homo sapiens, UniProt Q9P2R7).
T3 construct: endogenous in cells; host or cells: Jurkat cells
T3 sequence (Q9P2R7 53-463): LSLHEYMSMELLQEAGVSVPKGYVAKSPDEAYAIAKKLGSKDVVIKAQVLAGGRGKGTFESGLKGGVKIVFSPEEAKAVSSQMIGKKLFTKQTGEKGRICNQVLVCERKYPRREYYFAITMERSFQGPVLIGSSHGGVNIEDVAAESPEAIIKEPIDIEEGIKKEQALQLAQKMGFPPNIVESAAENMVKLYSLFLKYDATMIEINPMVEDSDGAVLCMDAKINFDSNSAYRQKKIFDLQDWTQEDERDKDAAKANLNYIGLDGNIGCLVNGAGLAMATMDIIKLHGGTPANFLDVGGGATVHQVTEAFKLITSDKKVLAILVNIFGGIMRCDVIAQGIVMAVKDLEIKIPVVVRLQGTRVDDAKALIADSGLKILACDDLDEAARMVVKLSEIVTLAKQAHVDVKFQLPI
The experiment is described as above. The following applies: DB vs DMSO, mass spectrometry.
From the text: as §1, §2, §3, §4, §5

The target of experiment [3] is T4, proteins of human Jurkat cell lysate (EF-1alpha isoforms and others) (Homo sapiens, UniProt Q13838).
T4 construct: endogenous in cells; host or cells: Jurkat cells
Described as above. The conditions noted are these: DB vs DMSO, mass spectrometry.
From the text: as §1, §2, §3, §4, §5

The test system of experiment [4] is proteins of human Jurkat cell lysate (EF-1alpha isoforms and others). Described as above. The conditions noted are these: DB-treated Jurkat cells, 1 μg/mL, FIG. 3A.
From the text: as §1, §2, §3, §4, §5

Experiment [5] deals with T5, proteins of human Jurkat cell lysate (EF-1alpha isoforms and others) (Homo sapiens, UniProt P00558).
T5 construct: endogenous in cells; host or cells: Jurkat cells
T5 sequence (P00558 1-417): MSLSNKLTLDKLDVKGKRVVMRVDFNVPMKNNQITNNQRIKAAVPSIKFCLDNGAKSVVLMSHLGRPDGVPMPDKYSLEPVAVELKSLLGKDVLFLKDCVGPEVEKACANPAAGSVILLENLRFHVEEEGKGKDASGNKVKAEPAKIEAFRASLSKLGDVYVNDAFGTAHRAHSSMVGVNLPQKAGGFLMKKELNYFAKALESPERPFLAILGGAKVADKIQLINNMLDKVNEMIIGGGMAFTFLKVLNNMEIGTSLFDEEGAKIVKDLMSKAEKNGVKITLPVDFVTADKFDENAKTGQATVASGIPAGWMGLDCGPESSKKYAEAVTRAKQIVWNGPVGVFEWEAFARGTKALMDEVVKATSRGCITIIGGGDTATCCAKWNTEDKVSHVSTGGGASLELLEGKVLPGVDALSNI
The experiment is described as above. The conditions noted are these: DB vs DMSO, mass spectrometry.
From the text: as §1, §2, §3, §4, §5

Experiment [6] deals with T6, proteins of human Jurkat cell lysate (EF-1alpha isoforms and others) (Homo sapiens, UniProt P68104).
T6 construct: endogenous in cells; host or cells: Jurkat cells
The experiment is described as above. The conditions noted are these: DB vs DMSO, mass spectrometry.
From the text: as §1, §2, §3, §4, §5

Experiment [7] addresses T7, proteins of human Jurkat cell lysate (EF-1alpha isoforms and others) (Homo sapiens, UniProt Q05639).
T7 construct: endogenous in cells; host or cells: Jurkat cells
Described as above. The conditions noted are these: DB vs DMSO, mass spectrometry.
From the text: as §1, §2, §3, §4, §5

T1 sequence (P68104 2-462): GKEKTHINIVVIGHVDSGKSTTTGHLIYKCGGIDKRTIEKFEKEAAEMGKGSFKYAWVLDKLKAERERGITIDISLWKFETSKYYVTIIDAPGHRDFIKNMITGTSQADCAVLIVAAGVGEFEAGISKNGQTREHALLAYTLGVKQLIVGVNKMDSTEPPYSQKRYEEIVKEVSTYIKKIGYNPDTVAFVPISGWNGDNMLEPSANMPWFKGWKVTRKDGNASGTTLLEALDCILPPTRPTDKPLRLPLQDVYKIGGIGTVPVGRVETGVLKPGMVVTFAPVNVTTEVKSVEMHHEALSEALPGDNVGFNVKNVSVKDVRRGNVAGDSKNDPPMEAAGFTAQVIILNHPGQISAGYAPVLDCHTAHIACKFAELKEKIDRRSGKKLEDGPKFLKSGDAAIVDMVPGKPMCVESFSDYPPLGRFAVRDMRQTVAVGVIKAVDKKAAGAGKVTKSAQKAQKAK
T6 sequence (P68104 whole entry, canonical isoform): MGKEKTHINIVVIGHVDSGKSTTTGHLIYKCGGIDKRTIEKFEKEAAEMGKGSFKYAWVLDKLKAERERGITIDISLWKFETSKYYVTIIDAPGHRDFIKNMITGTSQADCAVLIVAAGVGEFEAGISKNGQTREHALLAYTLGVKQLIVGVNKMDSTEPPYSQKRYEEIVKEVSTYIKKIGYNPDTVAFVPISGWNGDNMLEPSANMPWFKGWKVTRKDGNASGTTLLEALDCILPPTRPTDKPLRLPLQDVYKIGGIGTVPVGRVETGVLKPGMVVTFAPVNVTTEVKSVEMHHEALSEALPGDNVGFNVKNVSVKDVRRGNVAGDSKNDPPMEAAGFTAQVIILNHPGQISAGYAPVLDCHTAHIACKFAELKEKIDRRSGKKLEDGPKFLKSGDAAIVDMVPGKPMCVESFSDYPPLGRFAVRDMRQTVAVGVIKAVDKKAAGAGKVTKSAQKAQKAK
T4 sequence (Q13838 whole entry, canonical isoform): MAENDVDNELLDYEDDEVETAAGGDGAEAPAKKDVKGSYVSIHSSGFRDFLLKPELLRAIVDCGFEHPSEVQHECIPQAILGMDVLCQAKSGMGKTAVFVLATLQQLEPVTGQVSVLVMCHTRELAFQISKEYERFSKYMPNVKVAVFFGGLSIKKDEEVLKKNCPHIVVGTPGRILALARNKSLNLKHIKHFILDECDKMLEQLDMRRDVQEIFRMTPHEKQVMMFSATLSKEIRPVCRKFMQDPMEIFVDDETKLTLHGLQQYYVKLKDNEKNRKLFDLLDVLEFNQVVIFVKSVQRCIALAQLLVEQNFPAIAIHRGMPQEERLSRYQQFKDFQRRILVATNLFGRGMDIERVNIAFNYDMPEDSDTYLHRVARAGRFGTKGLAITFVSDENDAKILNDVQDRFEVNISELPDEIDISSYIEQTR
T2 sequence (P06733 whole entry, canonical isoform): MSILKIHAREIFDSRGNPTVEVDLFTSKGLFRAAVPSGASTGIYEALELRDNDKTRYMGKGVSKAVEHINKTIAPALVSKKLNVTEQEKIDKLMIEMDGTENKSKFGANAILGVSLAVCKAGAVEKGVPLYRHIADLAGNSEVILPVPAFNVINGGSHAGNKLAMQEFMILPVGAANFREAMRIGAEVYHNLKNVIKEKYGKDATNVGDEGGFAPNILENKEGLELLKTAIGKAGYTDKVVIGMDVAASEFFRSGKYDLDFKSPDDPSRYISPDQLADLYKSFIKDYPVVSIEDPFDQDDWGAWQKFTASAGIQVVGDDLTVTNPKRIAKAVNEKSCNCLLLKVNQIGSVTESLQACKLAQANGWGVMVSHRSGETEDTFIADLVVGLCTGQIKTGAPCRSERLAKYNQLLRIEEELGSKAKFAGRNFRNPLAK
T7 sequence (Q05639 whole entry, canonical isoform): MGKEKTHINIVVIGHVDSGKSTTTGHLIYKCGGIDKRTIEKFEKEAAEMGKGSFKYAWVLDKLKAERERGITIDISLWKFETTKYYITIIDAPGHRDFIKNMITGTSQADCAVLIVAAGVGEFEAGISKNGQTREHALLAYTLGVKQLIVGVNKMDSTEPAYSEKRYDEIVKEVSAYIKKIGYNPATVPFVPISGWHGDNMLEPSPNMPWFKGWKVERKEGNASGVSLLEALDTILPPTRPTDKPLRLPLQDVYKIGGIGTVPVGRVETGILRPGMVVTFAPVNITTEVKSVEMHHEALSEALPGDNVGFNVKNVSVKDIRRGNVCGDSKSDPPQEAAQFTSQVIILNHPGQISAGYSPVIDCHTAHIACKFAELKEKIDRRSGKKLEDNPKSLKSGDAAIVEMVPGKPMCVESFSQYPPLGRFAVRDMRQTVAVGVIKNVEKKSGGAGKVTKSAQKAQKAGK

`CC[C@H](C)[C@H]1NC(=O)[C@@H](NC(=O)[C@@H](CC(C)C)N(C)C(=O)[C@@H]2CCCN2C(=O)C(C)O)[C@@H](C)OC(=O)[C@H](Cc2ccc(OC)cc2)N(C)C(=O)[C@@H]2CCCN2C(=O)[C@H](CC(C)C)NC(=O)[C@@H](C)C(=O)[C@H](C(C)C)OC(=O)C[C@@H]1O` (stereo partly drawn) [DB, didemnin B]: the “concentration at which protection starts” value on EF-1 alpha (Jurkat lysates incubated in vitro 30 min, thermolysin, western blot, FIG. 7) is 100 ng/mL. Moreover, the “proteolytic protection of EF-1 alpha by immunoblotting” value on EF-1 alpha (intact cells treated and lysates incubated in vitro) is “concentration dependent proteolytic protection”. In addition, the “change of ENO1 in protected band (depleted)” value in experiment [1] is given as −1.8 fold. Further, in experiment [2], the “enrichment of SUCLA2 in protected band” value is 11.7 fold. Also, the “enrichment of BAT1 in protected band” value in experiment [3] stood at 7.5 fold. Also, the “protected band on Coomassie-stained gel after thermolysin” value in experiment [4] was “strong protected band”. For the same molecule, the “enrichment of PGK1 in protected band” value in experiment [5] is on record as 2.4 fold. Also, the “enrichment of EEF1A1 in protected band” value in experiment [6] was found to be 18.7 fold. The “enrichment of EEF1A2 in protected band” value in experiment [7] is listed as 21.7 fold.
